In US6255323A, “Cyanoguanidine compounds” (Shionogi Bioresearch Corp., priority 2000, dated 2001):

Legend:
[1] = system: Non-Hodgkin's B cell lymphoma (RL) tumor; experiment: RL human tumor xenograft regression assay; assay type: in vivo, human tumor in female NIH Swiss nude mice; conditions: for average tumor volume, % of tumor volume obtained in the control: Day 21, 75 mg/kg; for gross toxicity: 2780 75, 2889 90, 2897 75, 2900 60, 2727 60 mg/kg (2727: reduced to once per day); for tumor regression: within the first two weeks of dosing, IV morning + IP afternoon, 2780 75, 2889 90, 2897 75, 2900 60, 2727 60 mg/kg
Protocol: The antitumor activity of a cyanoguanidine compound of this invention can also be evaluated by in vivo testing, e.g., human tumor xenograft regression assays. Animals bearing established tumors are treated with a test compound for a three-week period. The growth of the tumors and the general health of the animal are monitored during the three-week treatment and for two more weeks after treatment to determine if tumor regrowth occurs. See Example 150 below.
(§1) From the in vitro results obtained, cyanoguanidine compounds were selected for human tumor xenograft regression assays. Animals bearing established tumors (RL) were treated with a test compound for a three-week period. The growth of the tumors and the general health of the animals were monitored during the treatment and for an additional two weeks after dosing had been terminated to determine if tumor regrowth took place.
(§2) Non-Hodgkin's B cell lymphoma (RL) tumor cells, which were adapted to grow as solid tumors, were implanted by an intradermal injection of a tumor cell suspension (30×10^6 cells in 0. 1 mL media) in the flanks of female NIH Swiss nude mice (Taconic Labs). Each mouse was implanted with one tumor and 6-8 mice per group were used.
(§3) Dosing was initiated one week after implantation (Day 1), when tumors reached approximately 50 to 100 mm^3 in volume, with a test compound or vehicle five times per week for three weeks either intravenously (IV) or intraperitoneally (IP). Cyclophosphamide (CTX, Sigma) was used as a standard in the assays. Compounds were first dissolved in DMSO (Sigma) and formulated with 20% Cremophor RH40 (BASF) to a final concentration of 10% DMSO/18% Cremophor. The formulated solution was made fresh daily.
(§4) Tumors, assumed to be hemi-ellipsoid in shape, were measured with calipers in three dimensions. Tumor volumes were calculated using the equation:
(§5) where L=length, W=width, and H=height of the tumor. Animals were weighed and their general health was monitored during the course of the assay. When tumors became necrotic or if animals became moribund, the animals were euthanized by CO2 asphyxiation. Student's t test was used to determine if there was a significant difference between the data obtained in the compound treated group and the vehicle treated group.
In a preliminary RL tumor growth regression assay, eight compounds were administered twice a day (via IV route in the morning and IP route in the afternoon) for five days per week for a three-week period. […] For comparison, cyclophosphamide, reduced the average tumor volume to 2% of control by Day 18. […] Compounds SBR-11-2899 (75 mg/kg), SBR-11-2750 (75 mg/kg), and SBR-11-2749 (75 mg/kg) reduced the average tumor volume to 10%, 14%, and 18% of the tumor volume obtained in the control on Day 21, respectively. One compound, SBR-11-4483 (60 mg/kg) was administered once per day (via IV route) for a two-week period. By day 19, a reduction of the average tumor volume to 1% was observed.

[2] = system: Non-Hodgkin's B cell lymphoma (RL) tumor; experiment: RL tumor growth regression assay, dose dependence; assay type: in vivo; conditions: for weight loss: all mice except one CTX-treated mouse; for effect on tumor volume (in words): three doses
Protocol: as §1, §2, §3, §4, §5
The ability of compounds to act in a dose dependent manner was assayed in an RL tumor growth regression assay using compounds SBR-11-2897 and SBR-11-2780.

[3] = system: tumor cell line (PC-3) versus normal cell line (CV-1); experiment: Tumor cell selectivity: IC50 normal cell line (CV-1) versus tumor cell line (PC-3); assay type: cell-based, human (PC-3); monkey (CV-1, transformed monkey kidney cells); conditions: CV-1 normal cell line vs PC-3 tumor cell line
Protocol: The antitumor activity of a cyanoguanidine compound of this invention can be evaluated by MTS colorimetric assay (see Example 149 below). Results obtained by using cell lines of various types of tumors are compared with those obtained by using cell lines of normal cells in this assay. Viability of the cells in each cell line is estimated by measuring the cellular conversion of a tetrazolium salt after incubating the cells in a solution containing a test cyanoguanidine compound in a 96 well plate. IC50 values obtained by using an identical test compound on normal cells and cells of a particular tumor cell line are compared and their ratio (IC50 normal cell /IC50 cancer cell) indicates the cancer selectivity of that test compound. The higher the ratio, the higher the selectivity of the test compound towards that particular type of cancer cell.
In the secondary screening, IC50 values were determined. Cells were seeded at a low cell density in 96 well flat-bottom plates and incubated for 24 hours at 37° C. in a 7% CO2 atmosphere. […]

[4] = twice a day IV + IP, 5 days/week, 3 weeks, 2780 75, 2889 90, 2897 75, 2900 60 mg/kg
[5] = twice a day IV + IP, 5 days/week, 3 weeks

Row | SMILES | weight loss [1, 4] | gross toxicity [1, 5] | tumor regression ([1]; 5 days/week) | further results
1 | N#CN=C(NCc1ccc(NC(=O)c2ccccc2Cc2ccccc2)cc1)Nc1ccncc1 [SBR-11-2750, 2-Benzyl-N-(4-(N'-cyano-N"-pyridin-4-yl-guanidinomethyl)-phenyl)-benzamide] |  |  |  | average tumor volume, % of tumor volume obtained in the control ([1]; twice a day IV + IP): 14%
2 | CN(C)c1cccc2c(S(=O)(=O)Nc3ccc(CNC(=NC#N)Nc4ccncc4)cc3)cccc12 [SBR-11-2897, 5-Dimethylamino-naphthalene-1-sulfonic acid (4-(N'-cyano-N"-pyridin-4-yl-guanidinomethyl)-phenyl)-amide] | less than 10% | little gross toxicity | completely regressed all tumors | weight loss [2]: Less than 10%; effect on tumor volume (in words) [2]: almost complete reduction of average tumor volumes
3 | COc1ccc2cc(C(C)C(=O)Nc3ccc(CNC(=NC#N)Nc4ccncc4)cc3)ccc2c1 (stereo not shown) [SBR-11-2749, 2-(6-Methoxy-naphthalen-2-yl)-N-(4-(N'-cyano-N"-pyridin-4-yl-guanidinomethyl)-phenyl)-propionamide] |  |  |  | average tumor volume, % of tumor volume obtained in the control ([1]; twice a day IV + IP): 18%
4 | N#CN=C(NCc1ccc(NC(=O)C2c3ccccc3-c3ccccc32)cc1)Nc1ccncc1 [SBR-11-2727, 9H-fluorene-9-carboxylic acid (4-(N'-cyano-N"-pyridin-4-yl-guanidinomethyl)-phenyl)-amide] |  | signs of gross toxicity within the first week | completely regressed all tumors | 
5 | N#CN=C(NCc1ccc(NS(=O)(=O)c2cccc(C(F)(F)F)c2)cc1)Nc1ccncc1 [SBR-11-2899, N-(4-(N'-Cyano-N"-pyridin-4-yl-guanidinomethyl)-phenyl)-3-trifluoromethyl-benzenesulfonamide] |  |  |  | average tumor volume, % of tumor volume obtained in the control ([1]; twice a day IV + IP): 10%
6 | N#CNC(=Nc1ccncc1)NCCN1CCC(OC(c2ccccc2)c2ccccc2)CC1 [SBR-11-4483, N-[2-(4-Benzhydryloxy-piperidin-1-yl)-ethyl]-N'-cyano-N"-pyridin-4-yl-guanidine] |  |  |  | weight loss ([1]; 60 mg/kg once per day IV, two weeks): less than 10%; reduction of the average tumor volume to ([1]; by day 19, 60 mg/kg once per day IV, two weeks): 1%
7 | Cc1cc(C)c(S(=O)(=O)Nc2ccc(CNC(=NC#N)Nc3ccncc3)cc2)c(C)c1 [SBR-11-2889, 2,4,6-Trimethyl-N-(4-(N'-cyano-N"-pyridin-4-yl-guanidinomethyl)-phenyl)-benzenesulfonamide] | less than 10% | little gross toxicity | completely regressed all tumors | 
8 | N#CN=C(NCc1ccc(NS(=O)(=O)c2cccc3ccccc23)cc1)Nc1ccncc1 [SBR-11-2900, Naphthalene-1-sulfonic acid (4-(N'-cyano-N"-pyridin-4-yl-guanidinomethyl)-phenyl)-amide] | less than 10% | little gross toxicity | completely regressed all tumors | 
9 | O=P1(N(CCCl)CCCl)NCCCO1 (stereo not shown) [cyclophosphamide, Cyclophosphamide, reference compound] |  |  |  | average tumor volume, % of control ([1]; by Day 18, cyclophosphamide standard): 2%
10 | CC(=O)O[C@H]1C(=O)[C@@]2(C)[C@H]([C@H](OC(=O)c3ccccc3)[C@]3(O)C[C@H](OC(=O)[C@H](O)[C@@H](NC(=O)c4ccccc4)c4ccccc4)C(C)=C1C3(C)C)[C@]1(OC(C)=O)CO[C@@H]1C[C@@H]2O [Taxol] |  |  |  | selectivity of tumor cells (IC50 normal cell /IC50 cancer cell) [3]: 20 fold
11 | Cc1c(C)c2c(c(C)c1O)CCC(C)(C(=O)Nc1ccc(CNC(=NC#N)Nc3ccncc3)cc1)O2 (stereo not shown) [SBR-11-2780, 6-Hydroxy-2,5,7,8-tetramethyl-chroman-2-carboxylic acid (4-(N'-cyano-N"-pyridin-4-yl-guanidinomethyl)-phenyl)-amide] | less than 10% | little gross toxicity | completely regressed all tumors | average tumor volume, % of control group ([2]; 20 mg/kg): 86%; average tumor volume, % of control group ([2]; 40 mg/kg): 24%; average tumor volume, % of control group ([2]; 80 mg/kg): 3%; weight loss [2]: Less than 10%; effect on tumor volume (in words) [2]: dose dependent effect
